Reference: patent publication US9814696B2, “Use of coumarin derivatives for the preparation of drugs for treating skin diseases” (UNIVERSITE PIERRE ET MARIE CURIE (PARIS 6), priority 2011, dated 2017)
Each block holds one molecule with its values, some of them ahead of it.

Columns and labels:
Assay type in all cases: biochemical
KLK5 = target: T1, KLK5 (Homo sapiens, UniProt Q9Y337); experiment: KLK5 enzyme inhibition assay, fluorogenic substrate Boc-Val-Pro-Arg-AMC; details: for inhibition at 50 µM / IC50 / inhibition at 100 µM: 37° C., 15 min of incubation, pH 8; for IC50: Table A, read-out: IC50 (μM) KLK5; for selective activity against enzyme: KLK5: Table B, among KLK5, KLK7 and KLK14
T1 sequence (Q9Y337 23-293): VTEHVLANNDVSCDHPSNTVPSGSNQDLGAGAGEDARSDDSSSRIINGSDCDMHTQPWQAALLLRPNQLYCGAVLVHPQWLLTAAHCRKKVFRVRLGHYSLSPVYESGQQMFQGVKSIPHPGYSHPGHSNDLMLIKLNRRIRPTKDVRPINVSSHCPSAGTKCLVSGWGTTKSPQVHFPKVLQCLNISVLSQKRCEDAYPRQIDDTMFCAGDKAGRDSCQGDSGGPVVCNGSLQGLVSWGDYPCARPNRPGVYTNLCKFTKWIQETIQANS
Description: (§1) Kallikreins KLK5, KLK7 and KLK14 activities were determined by monitoring the hydrolysis of the appropriate fluorogenic substrate (λexc=355, λem=460 nm) for 15 min at 37° C. in the presence of the untreated kallikrein (control) or kallikrein that had been incubated with a test compound. Substrate and compounds were previously dissolved in DMSO, with the final solvent concentration kept constant at 2% (v/v) (KLK 5 and 14), and 4% (v/v) (KLK7). The composition of the activity buffers (pH 8.0) was 100 mM Tris-HCl, 150 mM NaCl, 0.01% (v/v) Tween 20 for the KLK5 assay, and 100 mM Tris-HCl, 1M NaCl, 0.01% (v/v) Tween 20 in the KLK 7 and 14 assays. The final concentrations were 0.6 nM (KLK5) and 100 μM (Boc-Val-Pro-Arg-AMC) (KLK5 assay), 8 nM (KLK7) and 40 μM (Suc-Leu-Leu-Val-Tyr-AMC, AMC: 7-amino-4-methyl-coumarin) (KLK7 assay), and 0.17 nM (KLK14) and 10 μM (Boc-Val-Pro-Arg-AMC) (KLK14 assay). Using the appropriate substrate, the coumarinic compounds (0.01-100 μM) were tested in duplicate for each inhibitor concentration to detect their inhibitory potential. The enzyme and the inhibitors were incubated for 15 min before the determination of the enzyme activity. Initial rates determined in control experiments (V0) were considered to be 100% of the peptidase activity; initial rates below 100% were considered to be inhibitions. The inhibitory activity of compounds was expressed as IC50 (inhibitor concentrations giving 50% inhibition). The values of IC50 were calculated by fitting the experimental data to the equation: % Inhibition=100×(1−Vi/V0)=100[I]0/(IC50+[I]0), or equation: % Inhibition=100[I]0^nH/(IC50^nH+[I]0^nH),nH is the Hill number.
(§2) The tests were realized at 37° C. after 15 min of incubation at pH 8.

KLK7 = KLK7 (Homo sapiens, UniProt P49862); experiment: KLK7 enzyme inhibition assay, fluorogenic substrate Suc-Leu-Leu-Val-Tyr-AMC; details: for IC50: Table A, read-out: IC50 (μM) KLK7; for IC50 / inhibition at 100 µM / inhibition at 10 µM / inhibition at 50 µM: 37° C., 15 min of incubation, pH 8; for selective activity against enzyme: KLK7: Table B, among KLK5, KLK7 and KLK14
Description: as §1, §2

KLK14 = target: T2, KLK14 (Homo sapiens, UniProt Q9P0G3); experiment: KLK14 enzyme inhibition assay, fluorogenic substrate Boc-Val-Pro-Arg-AMC; details: for inhibition at 50 µM / inhibition at 100 µM / IC50: 37° C., 15 min of incubation, pH 8; for selective activity against enzyme: KLK14: Table B, among KLK5, KLK7 and KLK14; for IC50: Table A, read-out: IC50 (μM) KLK14
T2 sequence (Q9P0G3 25-251): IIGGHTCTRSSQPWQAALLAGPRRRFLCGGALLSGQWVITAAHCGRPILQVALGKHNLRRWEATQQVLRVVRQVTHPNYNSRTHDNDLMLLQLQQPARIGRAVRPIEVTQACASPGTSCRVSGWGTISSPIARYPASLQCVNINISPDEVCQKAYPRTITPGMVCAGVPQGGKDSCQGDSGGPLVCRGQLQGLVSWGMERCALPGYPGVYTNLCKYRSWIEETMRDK
Description: as §1, §2

KLK7, sequence (P49862 30-253): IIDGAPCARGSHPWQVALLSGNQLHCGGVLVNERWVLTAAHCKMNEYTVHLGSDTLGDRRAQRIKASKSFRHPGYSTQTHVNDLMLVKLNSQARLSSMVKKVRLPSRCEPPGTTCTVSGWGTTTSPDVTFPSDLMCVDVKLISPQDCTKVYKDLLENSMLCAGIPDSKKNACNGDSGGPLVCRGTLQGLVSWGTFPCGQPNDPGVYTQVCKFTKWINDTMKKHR

SMILES: NCc1ccc2oc(=O)c(C(=O)Oc3cccc(Br)c3)cc2c1 [IK48]
inhibition at 50 µM (KLK5): 27%
IC50 (KLK7): 9.7 ± 1.3 µM
inhibition at 50 µM (KLK14): 32%

SMILES: O=C(Oc1cc([N+](=O)[O-])ccc1[N+](=O)[O-])c1cc2cc(CCl)ccc2oc1=O [CFL21]
IC50 (KLK5): 121 µM
inhibition at 100 µM (KLK7): 22%
inhibition at 100 µM (KLK14): 43%
selective activity against enzyme: KLK14 (KLK14): KLK14

SMILES: CC(=O)OCc1ccc2oc(=O)c(C(=O)Oc3cc(F)ccc3Br)cc2c1 [CFL17]
inhibition at 100 µM (KLK7): 33%
inhibition at 50 µM (KLK14): 50%
selective activity against enzyme: KLK14 (KLK14): KLK14

SMILES: O=C(Oc1cc(F)ccc1F)c1cc2ccccc2oc1=O [CFL7]
inhibition at 100 µM (KLK7): 33%
inhibition at 100 µM (KLK14): 33%

SMILES: COC(=O)c1ccccc1OC(=O)c1cc2cc(CCl)ccc2oc1=O [IK1]
IC50 (KLK5): 26.3 ± 1.4 µM
IC50 (KLK7): 2.7 ± 0.1 µM
IC50 (KLK14): 38 ± 5 µM

SMILES: CC(=O)NCc1ccc2oc(=O)c(C(=O)Oc3cccc(Br)c3)cc2c1 [IK49]
inhibition at 10 µM (KLK7): 54%
selective activity against enzyme: KLK7 (KLK7): KLK7

SMILES: O=C(O)c1ccccc1OC(=O)c1cc2cc(CCl)ccc2oc1=O [IK11]
inhibition at 50 µM (KLK5): 37.4%
inhibition at 100 µM (KLK7): 63%
IC50 (KLK14): 43 ± 4 µM

SMILES: CCOC(=O)c1cc2cc(C)ccc2oc1=O [Compound D5]
inhibition at 100 µM (KLK5): 90%
inhibition at 100 µM (KLK7): 61%
inhibition at 100 µM (KLK14): 38%

SMILES: COC(=O)c1ccc(OC(=O)c2cc3cc(CCl)ccc3oc2=O)cc1 [IK13]
inhibition at 100 µM (KLK7): 34%
inhibition at 100 µM (KLK14): 72%
selective activity against enzyme: KLK14 (KLK14): KLK14

SMILES: CC(=O)OCc1ccc2oc(=O)c(C(=O)Oc3cccc(F)c3)cc2c1 [IK10]
inhibition at 50 µM (KLK5): 23%
selective activity against enzyme: KLK5 (KLK5): KLK5

SMILES: CC(=O)c1cc2cc(C)ccc2oc1=O [Compound D9]
inhibition at 100 µM (KLK5): 80%
selective activity against enzyme: KLK5 (KLK5): KLK5
inhibition at 100 µM (KLK14): 40%

SMILES: CC(=O)OCc1ccc2oc(=O)c(C(=O)Oc3ccccc3I)cc2c1 [SMB28, 2-iodophenyl 6-acetoxymethyl-2-oxo-2H-1-benzopyran-3-carboxylate]
IC50 (KLK7): 82.2 ± 13.2 µM
selective activity against enzyme: KLK7 (KLK7): KLK7

More lines, now with the values ahead:

inhibition at 100 µM (KLK7): 55%
inhibition at 100 µM (KLK14): 71%
selective activity against enzyme: KLK14 (KLK14): KLK14
SMILES: Cc1cc(OC(=O)c2cc3cc(CCl)ccc3oc2=O)ccc1Cl [MFS35]

IC50 (KLK5): 59 ± 9 µM
IC50 (KLK7): 0.495 ± 0.037 µM
selective activity against enzyme: KLK7 (KLK7): KLK7
inhibition at 100 µM (KLK14): 50%
SMILES: O=C(Oc1c(Cl)cccc1Cl)c1cc2cc(CCl)ccc2oc1=O [LP72]

IC50 (KLK5): 112 ± 6 µM
IC50 (KLK7): 1.44 ± 0.02 µM
inhibition at 100 µM (KLK14): 46%
SMILES: O=C(Oc1ccccc1[N+](=O)[O-])c1cc2cc(CCl)ccc2oc1=O [LP60]

inhibition at 10 µM (KLK7): 58%
selective activity against enzyme: KLK7 (KLK7): KLK7
SMILES: CC(=O)NCc1ccc2oc(=O)c(C(=O)Oc3ccc(Br)cc3)cc2c1 [MH52]

inhibition at 50 µM (KLK7): 25%
selective activity against enzyme: KLK7 (KLK7): KLK7
SMILES: O=C(Oc1ccccc1)c1cc2cc(O)ccc2oc1=O [MH8]

inhibition at 50 µM (KLK5): 32%
inhibition at 50 µM (KLK7): 100%
inhibition at 50 µM (KLK14): 85%
SMILES: O=C(Oc1ccccc1)c1cc2cc(O)c(O)cc2oc1=O [MH22]

inhibition at 10 µM (KLK7): 52%
selective activity against enzyme: KLK7 (KLK7): KLK7
SMILES: CC(=O)OCc1ccc2oc(=O)c(C(=O)Oc3ccccc3Br)cc2c1 [SMB26]

IC50 (KLK7): 1.9 ± 0.1 µM
inhibition at 100 µM (KLK14): 35%
SMILES: O=C(Oc1ccccc1I)c1cc2cc(CCl)ccc2oc1=O [LP15]

inhibition at 50 µM (KLK7): 42%
inhibition at 50 µM (KLK14): 27%
SMILES: CC(=O)OCc1ccc2oc(=O)c(C(=O)Oc3ccccc3Cl)cc2c1 [SMB27]

inhibition at 100 µM (KLK5): 49%
inhibition at 100 µM (KLK7): 30%
inhibition at 100 µM (KLK14): 49%
SMILES: CCOC(=O)c1cc2cc(COC(C)=O)ccc2oc1=O [LP43]

inhibition at 100 µM (KLK5): 49%
IC50 (KLK7): 0.103 ± 0.005 µM
selective activity against enzyme: KLK7 (KLK7): KLK7
inhibition at 100 µM (KLK14): 40%
SMILES: O=C(Oc1cccc(Cl)c1)c1cc2cc(CCl)ccc2oc1=O [LP8]
